Laboratory results reported in US6461997B1, “Triazole sulfones having herbicidal activity” (Monsanto Technology LLC, priority 1999, dated 2002).

Columns and labels:
wheat (TRZAW) = experiment: Selectivity test, PPI, cool season crop; type: in vivo, Triticum aestivum; conditions: PPI application
Description: (§1) A pre-prepared topsoil mixture (described above) was placed in a pot and compacted to a depth of 1.0 to 1.25 cm from the top of the pot. Seeds of each of several monocotyledonous and dicotyledonous annual plant species were placed on top of the soil. A sufficient quantity of soil to cover the seeds and level fill the pot was weighed into an open container. A known amount of the test compound was dissolved or suspended in an organic solvent and applied by spraying to this cover soil. The cover soil was thoroughly mixed to distribute the test compound throughout the cover soil, and was then applied as a cover layer over the seeds. Untreated soil was used as a cover layer for control pots. After treatment the plants were placed in a greenhouse where they received 0.64 cm of overhead irrigation. All subsequent watering consisted of a light overhead mist and/or subirrigation as needed for germination and growth. Tables 9 and 10 below relate to warm season plant species which were placed after pre-emergence treatment in a greenhouse with a 30/21° C. day/night temperature regime. Tables 11 and 12 below relates to cool season plant species placed after pre-emergence treatment in a greenhouse or growth chamber with an 18/13° C. day/night temperature regime. Only the compounds of Examples 1, 6, 8, 11, 13 and 15-20 were included in PPI tests.
(§2) Approximately 14 days after planting and treating, the plants were observed and herbicidal efficacy recorded as percent inhibition by comparison with untreated plants.
Additional pre-emergence and PPI tests were conducted by the procedures described above, on warm and cool season weed species in the presence of crop species, to assess herbicidal selectivity. Crop species included in warm season tests were corn (Zea mays, ZEAMX), rice (Oryza sativa, ORYSA) and soybean (Glycine max, GLYMX). Crop species included in cool season tests were wheat (Triticum aestivum, TRZAW), barley (Hordeunm vulgare, HORVX) and oilseed rape (Brassica napus, BRSNS).
Tables 15 and 16 relate to pre-emergence and PPI tests respectively on warm season species. Table 17 relates to pre-emergence tests on cool season species.

[1] = tested on: AGSST (creeping bentgrass); experiment: Pre-emergence herbicidal activity, cool season; type: in vivo, Agrostis stolonifera; conditions: GR80 = lowest tested rate (300, 100, 30, 10 g/ha) with 80% or greater inhibition; approx. 14 days after treating; 18/13° C.
Method in brief: (§3)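 Seeds sown in sterilised fertilised topsoil received surface-applied compound in 50:50 acetone/water, typically at 300, 100, 30 and 10 g/ha, then greenhouse-grown at 30/21° C (warm-season species) or 18/13° C (cool-season species). Percent inhibition versus untreated plants was scored at about 14 days, giving GR80; an asterisk marks activity short of 80% at the top rate.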

[2] = tested on: PANMI (wild proso millet); experiment: Pre-plant incorporated (PPI) herbicidal activity, warm season; type: in vivo, Panicum miliaceum
Description: (§4) In another set of tests, the pre-plant incorporated (PPI) activity of compounds of this invention was evaluated on the same species as for the pre-emergence tests described above. In the PPI tests the following procedure, designed to simulate PPI application, was used.
as §1, §2

LOLMG (annual ryegrass) = experiment: Pre-plant incorporated (PPI) herbicidal activity, cool season; type: in vivo, Lolium multiflorum
Description: as §4, §1, §2

[3] = tested on: LAMPU (purple deadnettle); experiment: Pre-emergence herbicidal activity, cool season; type: in vivo, Lamium purpureum; conditions: lowest tested rate with 80% or greater inhibition; rates 300, 100, 30, 10 g/ha; about 14 days
Method in brief: as §3

SINAR (wild mustard) = experiment: Pre-emergence herbicidal activity, cool season; type: in vivo, Sinapis arvensis; conditions: lowest tested rate with 80% or greater inhibition; rates 300, 100, 30, 10 g/ha; about 14 days
Method in brief: as §3

SETVI (green foxtail) = experiment: Pre-emergence herbicidal activity, cool season; type: in vivo, Setaria viridis; conditions: GR80 = lowest tested rate (300, 100, 30, 10 g/ha) with 80% or greater inhibition; approx. 14 days after treating; 18/13° C.
Method in brief: as §3

[4] = tested on: CHEAL (common lambsquarters); experiment: Pre-plant incorporated (PPI) herbicidal activity, warm season; type: in vivo, Chenopodium album
Description: as §4, §1, §2

AMARE (redroot pigweed) = experiment: as above; type: in vivo, Amaranthus retroflexus
Description: as §4, §1, §2

XANST (cocklebur) = experiment: as above; type: in vivo, Xanthium strumarium; conditions: PPI application
Description: as §4, §1, §2

[5] = tested on: AEGCY (jointed goatgrass); experiment: Pre-plant incorporated (PPI) herbicidal activity, cool season; type: in vivo, Aegilops cylindrica
Description: as §4, §1, §2

[6] = pre-plant incorporated, lowest tested rate with 80% or greater inhibition, about 14 days
[7] = pre-plant incorporated, GR80 = lowest tested rate with 80% or greater inhibition, approx. 14 days after treating, 30/21° C.
[8] = weed, PPI application, 100 g/ha
[9] = weed, PPI application, 300 g/ha
[10] = weed, PPI application, 900 g/ha

## CCSC(F)(F)S(=O)(=O)c1ncn(C(=O)N(CC)CC)n1 [Example 8, 1-(N,N-diethylcarbamoyl)-3-[difluoro(ethylthio)methylsulfonyl]-1,2,4-triazole]
Wheat (TRZAW); Triticum aestivum, 30 g/ha, read-out: Percent inhibition TRZAW
  inhibition at 30 g/ha: 0%
Wheat (TRZAW); Triticum aestivum, 100 g/ha, read-out: Percent inhibition TRZAW
  inhibition at 100 g/ha: 0%
Wheat (TRZAW); Triticum aestivum, 300 g/ha, read-out: Percent inhibition TRZAW
  inhibition at 300 g/ha: 20%
Wheat (TRZAW); Triticum aestivum, 900 g/ha, read-out: Percent inhibition TRZAW
  inhibition at 900 g/ha: 60%
[1]
  Pre-emergence activity (GR80) AGSST: 30 g/ha
[2]; Panicum miliaceum, PPI application, 30 g/ha, read-out: Percent inhibition PANMI
  inhibition at 30 g/ha: 100%
[2]; Panicum miliaceum, PPI application, 100 g/ha, read-out: Percent inhibition PANMI
  inhibition at 100 g/ha: 100%
[2]; Panicum miliaceum, PPI application, 300 g/ha, read-out: Percent inhibition PANMI
  inhibition at 300 g/ha: 100%
[2]; Panicum miliaceum, PPI application, 900 g/ha, read-out: Percent inhibition PANMI
  inhibition at 900 g/ha: 100%
[2]; [6]
  PPI activity GR80, PANMI: 10 g/ha
LOLMG (annual ryegrass); Lolium multiflorum, weed, PPI application, 30 g/ha, read-out: Percent inhibition LOLMG
  inhibition at 30 g/ha: 35%
LOLMG (annual ryegrass); Lolium multiflorum, weed, PPI application, 100 g/ha, read-out: Percent inhibition LOLMG
  inhibition at 100 g/ha: 100%
LOLMG (annual ryegrass); Lolium multiflorum, weed, PPI application, 300 g/ha, read-out: Percent inhibition LOLMG
  inhibition at 300 g/ha: 100%
LOLMG (annual ryegrass); Lolium multiflorum, weed, PPI application, 900 g/ha, read-out: Percent inhibition LOLMG
  inhibition at 900 g/ha: 100%
LOLMG (annual ryegrass); [6]
  PPI activity GR80, LOLMG: 100 g/ha
[3]
  Pre-emergence activity GR80, LAMPU: [empty]
SINAR (wild mustard)
  Pre-emergence activity GR80, SINAR: [empty]
SETVI (green foxtail)
  Pre-emergence activity (GR80) SETVI: 100 g/ha
[4]; Chenopodium album, PPI application, 30 g/ha, read-out: Percent inhibition CHEAL
  inhibition at 30 g/ha: 70%
[4]; Chenopodium album, PPI application, 100 g/ha, read-out: Percent inhibition CHEAL
  inhibition at 100 g/ha: 100%
[4]; Chenopodium album, PPI application, 300 g/ha, read-out: Percent inhibition CHEAL
  inhibition at 300 g/ha: 100%
[4]; Chenopodium album, PPI application, 900 g/ha, read-out: Percent inhibition CHEAL
  inhibition at 900 g/ha: 100%
[4]; [7]
  PPI activity (GR80) CHEAL: 30 g/ha
AMARE (redroot pigweed); Amaranthus retroflexus, PPI application, 30 g/ha, read-out: Percent inhibition AMARE
  inhibition at 30 g/ha: 100%
AMARE (redroot pigweed); Amaranthus retroflexus, PPI application, 100 g/ha, read-out: Percent inhibition AMARE
  inhibition at 100 g/ha: 100%
AMARE (redroot pigweed); Amaranthus retroflexus, PPI application, 300 g/ha, read-out: Percent inhibition AMARE
  inhibition at 300 g/ha: 100%
AMARE (redroot pigweed); Amaranthus retroflexus, PPI application, 900 g/ha, read-out: Percent inhibition AMARE
  inhibition at 900 g/ha: 100%
AMARE (redroot pigweed); [7]
  PPI activity (GR80) AMARE: 100 g/ha
XANST (cocklebur); Xanthium strumarium, 30 g/ha, read-out: Percent inhibition XANST
  inhibition at 30 g/ha: 0%
XANST (cocklebur); Xanthium strumarium, 100 g/ha, read-out: Percent inhibition XANST
  inhibition at 100 g/ha: 0%
XANST (cocklebur); Xanthium strumarium, 300 g/ha, read-out: Percent inhibition XANST
  inhibition at 300 g/ha: 20%
XANST (cocklebur); Xanthium strumarium, 900 g/ha, read-out: Percent inhibition XANST
  inhibition at 900 g/ha: 50%
[5]; Aegilops cylindrica, weed, PPI application, 30 g/ha, read-out: Percent inhibition AEGCY
  inhibition at 30 g/ha: 0%
[5]; Aegilops cylindrica, weed, PPI application, 100 g/ha, read-out: Percent inhibition AEGCY
  inhibition at 100 g/ha: 50%
[5]; Aegilops cylindrica, weed, PPI application, 300 g/ha, read-out: Percent inhibition AEGCY
  inhibition at 300 g/ha: 40%
[5]; Aegilops cylindrica, weed, PPI application, 900 g/ha, read-out: Percent inhibition AEGCY
  inhibition at 900 g/ha: 20%
[5]; [6]
  PPI activity GR80, AEGCY: [empty]

## CCN(CC)C(=O)n1cnc(S(=O)(=O)C(F)(F)SC)n1 [Example 9]
Wheat (TRZAW); 30 g/ha
  Percent inhibition TRZAW: 0%
Wheat (TRZAW); 100 g/ha
  Percent inhibition TRZAW: 0%
Wheat (TRZAW); 300 g/ha
  Percent inhibition TRZAW: 10%
Wheat (TRZAW); 900 g/ha
  Percent inhibition TRZAW: 70%
[1]
  Pre-emergence activity (GR80) AGSST: 30 g/ha
[2]; PPI application, 30 g/ha
  Percent inhibition PANMI: 60%
[2]; PPI application, 100 g/ha
  Percent inhibition PANMI: 80%
[2]; PPI application, 300 g/ha
  Percent inhibition PANMI: 100%
[2]; PPI application, 900 g/ha
  Percent inhibition PANMI: 100%
LOLMG (annual ryegrass); weed, PPI application, 30 g/ha
  Percent inhibition LOLMG: 60%
LOLMG (annual ryegrass); [8]
  Percent inhibition LOLMG: 100%
LOLMG (annual ryegrass); [9]
  Percent inhibition LOLMG: 100%
LOLMG (annual ryegrass); [10]
  Percent inhibition LOLMG: 100%
[3]
  Pre-emergence activity GR80, LAMPU: 300 g/ha
SINAR (wild mustard)
  Pre-emergence activity GR80, SINAR: 300 g/ha
SETVI (green foxtail)
  Pre-emergence activity (GR80) SETVI: 100 g/ha
[4]; PPI application, 30 g/ha
  Percent inhibition CHEAL: 95%
[4]; PPI application, 100 g/ha
  Percent inhibition CHEAL: 100%
[4]; PPI application, 300 g/ha
  Percent inhibition CHEAL: 100%
[4]; PPI application, 900 g/ha
  Percent inhibition CHEAL: 100%
AMARE (redroot pigweed); PPI application, 30 g/ha
  Percent inhibition AMARE: 90%
AMARE (redroot pigweed); PPI application, 100 g/ha
  Percent inhibition AMARE: 100%
AMARE (redroot pigweed); PPI application, 300 g/ha
  Percent inhibition AMARE: 100%
AMARE (redroot pigweed); PPI application, 900 g/ha
  Percent inhibition AMARE: 100%
XANST (cocklebur); 30 g/ha
  Percent inhibition XANST: 0%
XANST (cocklebur); 100 g/ha
  Percent inhibition XANST: 0%
XANST (cocklebur); 300 g/ha
  Percent inhibition XANST: 30%
XANST (cocklebur); 900 g/ha
  Percent inhibition XANST: 60%
[5]; weed, PPI application, 30 g/ha
  Percent inhibition AEGCY: 0%
[5]; [8]
  Percent inhibition AEGCY: 20%
[5]; [9]
  Percent inhibition AEGCY: 30%
[5]; [10]
  Percent inhibition AEGCY: 40%
